System: hypertriglyceridemic patients with cardiovascular disease or at high risk for cardiovascular disease
Assay: REDUCE-IT: safety, treatment-emergent adverse events (incl. bleeding and gastrointestinal TEAEs)
[1] = gastrointestinal TEAE, Safety population N = 4089
[2] = gastrointestinal TEAE, number of patients, Safety population N = 4089
[3] = most frequent TEAEs (≥5%), N = 4089
[4] = no significant increase vs placebo
[5] = serious bleeding TEAE by preferred term, N = 4089
[6] = serious bleeding TEAE by preferred term, number of patients, N = 4089
[7] = serious bleeding TEAE, N = 4089
[8] = serious bleeding TEAE, number of patients, N = 4089
[9] = significantly higher than placebo

Experimental: Specification of Variables and Procedures: Safety assessments included adverse events, clinical laboratory measurements (chemistry, hematology), 12-lead ECGs, vital signs (systolic and diastolic blood pressure, heart rate, respiratory rate, and body temperature), weight, waist circumference, and physical examinations as per Study Procedures in Table 1. […] All laboratory test results were evaluated by the investigator as to their clinical significance. Any observations at physical examinations or laboratory values considered by the investigator to be clinically significant were considered an adverse event.
An adverse event can therefore be any unfavorable and/or unintended sign (including an abnormal laboratory finding), symptom, or disease temporally associated with the use of an investigational medication product, whether or not related to the investigational medication product. All adverse events, including observed or volunteered problems, complaints, or symptoms, were recorded on the appropriate CRF. Each adverse event was evaluated for duration, intensity, and causal relationship with the study medication or other factors.
Serious Adverse Events: A serious adverse event (SAE) is defined as an adverse event that meets any of the following criteria: • Results in death; • Is life-threatening—The term “life-threatening” in the definition of “serious” refers to an event in which the patient was at risk of death at the time of the event. […] Important medical events that may not result in death, be life threatening, or require hospitalization were considered an SAE when, based upon appropriate medical judgment, they may have jeopardized the patient and may have required medical or surgical intervention to prevent one of the outcomes listed above.
Adverse Events of Special Interest: Bleeding-related adverse events, glucose control (fasting blood glucose and HbA1c), and indicators of hepatic disorders (e.g., ALT or AST increases >3×ULN, total bilirubin increases of ≥2×ULN) were summarized separately and compared between treatment groups.
Analysis of Safety: All analyses of safety were conducted on the safety population, which was defined as all randomized patients. The safety assessment was based on the frequency of adverse events, physical exams, vital signs and safety laboratory tests. AEs with new onset during the study between the initiation of study drug and 30 days after the last dose of study drug for each patient was considered treatment-emergent (TEAEs). This included any AE with onset prior to initiation of study drug and increased severity after the treatment initiation.
This included overall incidence rates (regardless of severity and relationship to study drug), and incidence rates for moderate or severe adverse events. A summary of SAEs and adverse events leading to early discontinuation (for ≥30 days) were presented through data listings. Patients who restarted study drug were included in the summary of AEs leading to discontinuation. Safety laboratory tests and vital signs were summarized by post-treatment change from baseline for each of the parameters using descriptive statistics by treatment group. Those patients with significant laboratory abnormalities were identified in data listings. Additional safety parameters were summarized in data listings.

## CC/C=C\C/C=C\C/C=C\C/C=C\C/C=C\CCCC(=O)OCC [Icosapent Ethyl, eicosapentaenoic acid ethyl ester]
4 grams daily
  Overall adverse event rates compared with placebo: similar
N = 4089
  Positively Adjudicated Atrial Fibrillation/Flutter (hospitalization): 127 (3.1%) n (%)
  Serious TEAE (≥2%) Pneumonia: 105 (2.6%) n (%)
Safety population N = 4089
  Serious TEAE: 1252 (30.6%) n (%)
  Serious TEAE Leading to Death: 94 (2.3%) n (%)
  Serious TEAE Leading to Withdrawal of Study Drug: 88 (2.2%) n (%)
  Serious bleeding TEAE: Bleeding related disorders: 111 (2.7%) n (%)
  Serious bleeding TEAE: Central nervous system bleeding: 14 (0.3%) n (%)
  Serious bleeding TEAE: Gastrointestinal bleeding: 62 (1.5%) n (%)
  Serious bleeding TEAE: Other bleeding: 41 (1.0%) n (%)
  Subjects with at Least One TEAE: 3343 (81.8%) n (%)
  TEAE Leading to Withdrawal of Study Drug: 321 (7.9%) n (%)
[1]
  Constipation (TEAE), percentage of patients: (5.4%)
  Diarrhea (TEAE), percentage of patients: (9.0%)
  Gastroesophageal Reflux Disease (TEAE), percentage of patients: (3.0%)
  Gastrointestinal disorders (TEAE), percentage of patients: (33.0%)
  Nausea (TEAE), percentage of patients: (4.6%)
[2]
  Constipation (TEAE), patients: 221
  Diarrhea (TEAE), patients: 367
  Gastroesophageal Reflux Disease (TEAE), patients: 124
  Gastrointestinal disorders (TEAE), patients: 1350
  Nausea (TEAE), patients: 190
In vivo
  Treatment-emergent serious adverse events for bleeding, rate: 2.7%
Lower than placebo
  Rate of anemia (adverse event): 4.7%
  Rate of diarrhea (adverse event): 9%
  Rate of gastrointestinal adverse events: 33.0%
[3]
  TEAE Anemia: 191 (4.7%) n (%)
  TEAE Angina pectoris: 200 (4.9%) n (%)
  TEAE Arthralgia: 313 (7.7%) n (%)
  TEAE Atrial fibrillation: 215 (5.3%) n (%)
  TEAE Back pain: 335 (8.2%) n (%)
  TEAE Bronchitis: 306 (7.5%) n (%)
  TEAE Cataract: 233 (5.7%) n (%)
  TEAE Chest pain: 273 (6.7%) n (%)
  TEAE Constipation: 221 (5.4%) n (%)
  TEAE Cough: 241 (5.9%) n (%)
  TEAE Diarrhea: 367 (9.0%) n (%)
  TEAE Dizziness: 235 (5.7%) n (%)
  TEAE Dyspnea: 254 (6.2%) n (%)
  TEAE Fatigue: 228 (5.6%) n (%)
  TEAE Hypertension: 320 (7.8%) n (%)
  TEAE Influenza: 263 (6.4%) n (%)
  TEAE Nasopharyngitis: 314 (7.7%) n (%)
  TEAE Osteoarthritis: 241 (5.9%) n (%)
  TEAE Pain in extremity: 235 (5.7%) n (%)
  TEAE Peripheral edema: 267 (6.5%) n (%)
  TEAE Pneumonia: 263 (6.4%) n (%)
No significant difference in rates of serious adverse events versus placebo
  Tolerability: well tolerated
[4]
  Serious central nervous system bleeding, rate: 0.3%
  Serious gastrointestinal bleeding, rate: 1.5%
Only serious adverse event at frequency ≥2%
  Serious adverse event pneumonia, rate: 2.6%
[5]
  Aortic Aneurysm Rupture, percentage: (0.0%)
  Brain Contusion, percentage: (0.0%)
  Catheter Site Hemorrhage, percentage: (0.0%)
  Cerebral Hemorrhage, percentage: (0.0%)
  Cystitis Hemorrhagic, percentage: (0.0%)
  Diverticulitis Intestinal Hemorrhagic, percentage: (0.0%)
  Diverticulum Intestinal Hemorrhagic, percentage: (0.1%)
  Duodenal Ulcer Hemorrhage, percentage: (0.0%)
  Ecchymosis, percentage: (0.0%)
  Epistaxis, percentage: (0.2%)
  Esophageal Hemorrhage, percentage: (0.0%)
  Extravasation Blood, percentage: (0.0%)
  Gastric Hemorrhage, percentage: (0.0%)
  Gastric Ulcer Hemorrhage, percentage: (0.1%)
  Gastrointestinal Angiodysplasia Hemorrhagic, percentage: (0.0%)
  Gastrointestinal Hemorrhage, percentage: (0.6%)
  Genital Hemorrhage, percentage: (0.0%)
  Hemarthrosis, percentage: (0.0%)
  Hematemesis, percentage: (0.1%)
  Hematochezia, percentage: (0.0%)
  Hematoma, percentage: (0.0%)
  Hematuria, percentage: (0.2%)
  Hemoptysis, percentage: (0.0%)
  Hemorrhagic Anemia, percentage: (0.1%)
  Hemorrhagic Duodenitis, percentage: (0.0%)
  Hemorrhagic Transformation Stroke, percentage: (0.0%)
  Hemorrhoidal Hemorrhage, percentage: (0.1%)
  Hemothorax, percentage: (0.0%)
  Immune Thrombocytopenic Purpura, percentage: (0.0%)
  Intra-Abdominal Hemorrhage, percentage: (0.0%)
  Intracranial Hemorrhage, percentage: (0.0%)
  Large Intestinal Hemorrhage, percentage: (0.0%)
  Lower Gastrointestinal Hemorrhage, percentage: (0.1%)
  Mallory-Weiss Syndrome, percentage: (0.0%)
  Melaena, percentage: (0.1%)
  Menorrhagia, percentage: (0.0%)
  Mouth Hemorrhage, percentage: (0.0%)
  Pancreatitis Hemorrhagic, percentage: (0.0%)
  Peptic Ulcer Hemorrhage, percentage: (0.0%)
  Pericardial Hemorrhage, percentage: (0.0%)
  Post Procedural Hematoma, percentage: (0.0%)
  Post Procedural Hematuria, percentage: (0.0%)
  Post Procedural Hemorrhage, percentage: (0.1%)
  Rectal Hemorrhage, percentage: (0.2%)
  Renal Hemorrhage, percentage: (0.0%)
  Retinal Hemorrhage, percentage: (0.0%)
  Retroperitoneal Hematoma, percentage: (0.0%)
  Retroperitoneal Hemorrhage, percentage: (0.0%)
  Shock Hemorrhagic, percentage: (0.0%)
  Subarachnoid Hemorrhage, percentage: (0.0%)
  Subdural Hematoma, percentage: (0.2%)
  Subdural Hemorrhage, percentage: (0.0%)
  Traumatic Hematoma, percentage: (0.0%)
  Traumatic Intracranial Hemorrhage, percentage: (0.0%)
  Ulcer Hemorrhage, percentage: (0.0%)
  Upper Gastrointestinal Hemorrhage, percentage: (0.1%)
  Urinary Bladder Hemorrhage, percentage: (0.0%)
[6]
  Aortic Aneurysm Rupture, patients: 1
  Brain Contusion, patients: 0
  Catheter Site Hemorrhage, patients: 0
  Cerebral Hemorrhage, patients: 0
  Cystitis Hemorrhagic, patients: 2
  Diverticulitis Intestinal Hemorrhagic, patients: 0
  Diverticulum Intestinal Hemorrhagic, patients: 3
  Duodenal Ulcer Hemorrhage, patients: 2
  Ecchymosis, patients: 1
  Epistaxis, patients: 7
  Esophageal Hemorrhage, patients: 0
  Extravasation Blood, patients: 1
  Gastric Hemorrhage, patients: 1
  Gastric Ulcer Hemorrhage, patients: 3
  Gastrointestinal Angiodysplasia Hemorrhagic, patients: 1
  Gastrointestinal Hemorrhage, patients: 26
  Genital Hemorrhage, patients: 1
  Hemarthrosis, patients: 0
  Hematemesis, patients: 3
  Hematochezia, patients: 1
  Hematoma, patients: 1
  Hematuria, patients: 8
  Hemoptysis, patients: 1
  Hemorrhagic Anemia, patients: 4
  Hemorrhagic Duodenitis, patients: 0
  Hemorrhagic Transformation Stroke, patients: 1
  Hemorrhoidal Hemorrhage, patients: 3
  Hemothorax, patients: 1
  Immune Thrombocytopenic Purpura, patients: 0
  Intra-Abdominal Hemorrhage, patients: 1
  Intracranial Hemorrhage, patients: 0
  Large Intestinal Hemorrhage, patients: 1
  Lower Gastrointestinal Hemorrhage, patients: 5
  Mallory-Weiss Syndrome, patients: 1
  Melaena, patients: 3
  Menorrhagia, patients: 1
  Mouth Hemorrhage, patients: 0
  Pancreatitis Hemorrhagic, patients: 1
  Peptic Ulcer Hemorrhage, patients: 1
  Pericardial Hemorrhage, patients: 0
  Post Procedural Hematoma, patients: 1
  Post Procedural Hematuria, patients: 0
  Post Procedural Hemorrhage, patients: 5
  Rectal Hemorrhage, patients: 10
  Renal Hemorrhage, patients: 0
  Retinal Hemorrhage, patients: 1
  Retroperitoneal Hematoma, patients: 0
  Retroperitoneal Hemorrhage, patients: 1
  Shock Hemorrhagic, patients: 2
  Subarachnoid Hemorrhage, patients: 2
  Subdural Hematoma, patients: 9
  Subdural Hemorrhage, patients: 2
  Traumatic Hematoma, patients: 2
  Traumatic Intracranial Hemorrhage, patients: 0
  Ulcer Hemorrhage, patients: 1
  Upper Gastrointestinal Hemorrhage, patients: 3
  Urinary Bladder Hemorrhage, patients: 1
[7]
  Central Nervous System Bleeding (category), percentage: (0.3%)
  Gastrointestinal Bleeding (category), percentage: (1.5%)
  Other Bleeding (category), percentage: (1.0%)
  Patients with Bleeding-Related Disorders, percentage: (2.7%)
[8]
  Central Nervous System Bleeding (category), patients: 14
  Gastrointestinal Bleeding (category), patients: 62
  Other Bleeding (category), patients: 41
  Patients with Bleeding-Related Disorders, patients: 111
[9]
  Rate of atrial fibrillation (adverse event): 5.3%
  Rate of peripheral edema (adverse event): 6.5%

Source: patent publication US11298333B1, “Methods of reducing the risk of cardiovascular events in a subject” (Amarin Pharmaceuticals Ireland Limited, priority 2018, dated 2022)
